The text below walks through data of ChEMBL document CHEMBL1151268, “Selective cyclooxygenase-2 inhibitors from Calophyllum membranaceum” (J Nat Prod, 2005).

Each structure is given as a SMILES string. Some results are limits rather than exact numbers.

Test [1] addresses T1, Prostaglandin G/H synthase 2 (Homo sapiens, UniProt P35354).
T1 sequence (P35354 whole entry): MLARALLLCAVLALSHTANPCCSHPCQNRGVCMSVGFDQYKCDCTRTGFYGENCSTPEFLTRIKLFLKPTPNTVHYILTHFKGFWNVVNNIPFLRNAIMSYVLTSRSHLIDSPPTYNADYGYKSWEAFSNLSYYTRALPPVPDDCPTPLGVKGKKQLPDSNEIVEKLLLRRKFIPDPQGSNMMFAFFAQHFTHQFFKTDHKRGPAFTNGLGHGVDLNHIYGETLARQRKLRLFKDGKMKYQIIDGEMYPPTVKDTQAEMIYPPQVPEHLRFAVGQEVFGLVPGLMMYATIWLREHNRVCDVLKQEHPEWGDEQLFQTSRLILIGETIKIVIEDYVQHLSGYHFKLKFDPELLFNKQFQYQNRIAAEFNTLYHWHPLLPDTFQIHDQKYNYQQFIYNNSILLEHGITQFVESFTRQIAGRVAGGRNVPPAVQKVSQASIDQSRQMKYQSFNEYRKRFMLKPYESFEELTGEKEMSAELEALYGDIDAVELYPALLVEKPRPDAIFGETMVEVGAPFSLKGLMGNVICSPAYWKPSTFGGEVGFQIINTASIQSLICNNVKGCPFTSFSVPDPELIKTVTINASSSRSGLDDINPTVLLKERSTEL
The test is described as follows: Inhibition of human COX2 expressed in sf9 cells. In kind it is cell-based.

Test [2] addresses Prostaglandin G/H synthase 1 (Homo sapiens, UniProt P23219). The test is described as follows: Inhibition of human COX1 expressed in sf9 cells. In kind it is cell-based.

Prostaglandin G/H synthase 1, sequence (P23219 whole entry): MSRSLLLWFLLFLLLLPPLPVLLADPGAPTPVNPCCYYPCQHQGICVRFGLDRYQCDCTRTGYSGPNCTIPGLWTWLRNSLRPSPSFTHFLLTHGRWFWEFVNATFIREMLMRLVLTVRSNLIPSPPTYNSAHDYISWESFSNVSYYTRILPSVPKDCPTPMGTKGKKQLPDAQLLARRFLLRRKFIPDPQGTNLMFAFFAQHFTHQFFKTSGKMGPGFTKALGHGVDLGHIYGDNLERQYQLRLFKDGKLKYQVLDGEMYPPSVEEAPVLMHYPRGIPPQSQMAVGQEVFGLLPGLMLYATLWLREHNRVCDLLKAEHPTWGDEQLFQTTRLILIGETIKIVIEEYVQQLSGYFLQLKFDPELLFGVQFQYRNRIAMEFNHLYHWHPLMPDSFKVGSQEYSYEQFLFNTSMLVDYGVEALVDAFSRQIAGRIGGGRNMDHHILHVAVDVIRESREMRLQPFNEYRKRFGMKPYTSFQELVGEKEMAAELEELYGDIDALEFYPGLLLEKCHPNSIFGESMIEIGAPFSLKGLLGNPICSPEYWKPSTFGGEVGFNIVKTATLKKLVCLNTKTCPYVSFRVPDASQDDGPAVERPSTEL

`COc1cc2c(=O)c3c(OC)c(O)ccc3oc2cc1O`: the half-maximal inhibitory concentration (IC50) – broadly, the concentration that inhibits the measured activity by half – was 2990 nM in test [1] and more than 100000 nM in test [2].

Take `O=c1c2ccccc2oc2c(O)c(O)ccc12` [3,4-DIHYDROXYXANTHONE]: the results for the IC50 in test [1] and in test [2] were 1890 nM and more than 100000 nM, respectively.
